From publication PMC2994747, “Molecular Characterization of c-Abl/c-Src Kinase Inhibitors Targeted against Murine Tumour Progenitor Cells that Express Stem Cell Markers” (PLoS ONE, 2010)
Read-outs that look alike come from different tables or passages of the source.

Experiments:
HepG2 [1] = assay: Cell cycle analysis by flow cytometry; type: cell-based, human; details: IC50 concentration, 96 h
Procedure, shortened: (§1)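 Step one: detach cells with trypsin and rinse with PBS. Step two: pellet, then treat with solution A for 10 min at room temperature. Step three: add solutions B and C, with the final incubation cold (4°C) and dark, before cytometric acquisition.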

CaCo2 [2] = assay: Cell cycle analysis by flow cytometry; type: cell-based, human; details: IC50 concentration, 96 h
Procedure, shortened: as §1

A549 [3] = assay: Cell cycle analysis by flow cytometry; type: cell-based, human; details: IC50 concentration, 96 h
Procedure, shortened: as §1

[4] = system: human and murine cell lines; assay: Western blot, statements over human and murine cell lines; type: cell-based; details: IC50 concentration, 96 h
Method: For the Western Blot analysis, cells were rinsed and lysed as previously described. An amount of 25 µg protein was used for SDS-PAGE. Antibodies for c-Abl (sc-131), Actin (sc-1616), Cdc2-p34 (sc-8395), EPS15 (sc-1840), FAK (sc-558), c-Fos (sc-52), p38 (sc-7972), p53 (sc-6243) and STAT5 (sc-835x) were obtained from Santa Cruz (Santa Cruz Biotechnology, Heidelberg, Germany), while c-Src (2109) and phospho-Src Y416 (2101) were purchased from Cell Signaling (Cell Signaling Technology, Frankfurt a. M., Germany). The EGFR (06-847), phospho-EGFR Y992 (07-821) and phospho-EGFR Y1045 (04-284) stem from Upstate (Upstate, Schwalbach, Germany) and the hnRNP-K (A300-676A) from Bethyl Labs (Bethyl Laboratories, Montgomery, Texas, USA). Finally p73 (IMG-246) was supplied by Imgenex (Imgenex, Hamburg, Germany). Depending on the primary antibody the secondary antibodies were either horseradish peroxidase-conjugated anti-mouse (AP 160P), anti-rabbit (AP 132P) or anti-sheep (AP 147P) (Chemicon, Schwalbach, Germany).
Semi-quantitative analysis were carried out with Kodak 1D Image Analysis Software in reference to the vehicle treated control cells (see supplementary table S7).

GammaA3 = assay: MTS cell viability assay; type: cell-based, mouse
Procedure, shortened: (§2)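 Viability was measured as MTS absorbance at 490 nm following 1 h with the tetrazolium reagent. Treatment with the dual kinase inhibitors, or 0.2% DMSO as vehicle, lasted 24 h or 96 h in monolayer cultures kept in DMEM plus 10% foetal calf serum.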

BetaD5 = assay: MTS cell viability assay; type: cell-based, mouse
Procedure, shortened: as §2

GammaD12 = assay: MTS cell viability assay; type: cell-based, mouse; details: MTS
Procedure, shortened: as §2

A2C12 = assay: MTS cell viability assay; type: cell-based, mouse
Procedure, shortened: as §2

HepG2 [5] = assay: MTS cell viability assay; type: cell-based, human
Procedure, shortened: as §2

CaCo2 [6] = assay: MTS cell viability assay; type: cell-based, human
Procedure, shortened: as §2

A549 [7] = assay: MTS cell viability assay; type: cell-based, human
Procedure, shortened: as §2

[8] = 24 h, read-out: Calculated IC50 after single treatment for 24 h
[9] = 96 h, read-out: Calculated IC50 after daily treatment for 96 h

- IC50 (HepG2 [5]; [8]): 77.2 ± 7.5 µM
- IC50 (HepG2 [5]; [9]): 25.5 ± 4.8 µM
- IC50 (CaCo2 [6]; [8]): 77.1 ± 7.5 µM
- IC50 (CaCo2 [6]; [9]): 6.8 ± 1.5 µM
- IC50 (A549 [7]; [8]): 43.4 ± 8 µM
- IC50 (A549 [7]; [9]): 8.3 ± 0.4 µM
SMILES: CSc1nc(NCCc2ccc(Cl)cc2)c2cnn(CC(Cl)c3ccccc3)c2n1 (stereo not drawn) [Si57]
- Cells in G1 phase (HepG2 [1]): 63.9%
- Cells in G2 phase (HepG2 [1]): 8.1%
- Cells in S phase (HepG2 [1]): 28%
- Cells in G1 phase (CaCo2 [2]): 41.7%
- Cells in G2 phase (CaCo2 [2]): 18.1%
- Cells in S phase (CaCo2 [2]): 40.2%
- Cells in G1 phase (A549 [3]): 70.5%
- Cells in G2 phase (A549 [3]): 5.5%
- Cells in S phase (A549 [3]): 24%
- hnRNP-K protein level [4]: remained equal
- IC50 (GammaA3; [8]): 26.6 ± 4.2 µM
- IC50 (GammaA3; [9]): 5.8 ± 0.4 µM
- IC50 (BetaD5; [8]): 19.6 ± 1.5 µM
- IC50 (BetaD5; [9]): 9.1 µM
- IC50 (GammaD12; [8]): 14.6 ± 0.7 µM
- IC50 (GammaD12; [9]): 4.8 ± 0.6 µM
- IC50 (A2C12; [8]): 24.8 ± 0.2 µM
- IC50 (A2C12; [9]): 5.4 ± 0.3 µM
